According to patent US4584379A, “Isoquinoline thromboxane synthetase inhibitors” (Merrell Dow Pharmaceuticals Inc., priority 1985, dated 1986):

Columns and labels:
platelet rich plasma [1] = assay: ADP induced platelet aggregation in platelet rich plasma (Born aggregometry); format: cell-based, human
Description: (§1) The specific inhibitory activity of the present compounds can be determined by the following procedures. For platelet aggregation, blood was collected from normal volunteers into sodium citrate (3.8% w/v) 9:1. The indicated volunteers had not ingested aspirin or other non-steroidal anti-inflammatory drugs for at least 7 days. Platelet rich plasma was prepared from the blood by centrifugation at 200×g for 15 minutes. This plasma was centrifuged at 10,000×g for 2 minutes to obtain platelet poor plasma blank. The platelet rich plasma was incubated at 37° C. for 60 seconds prior to addition of vehicle or compound. The platelet rich plasma was then incubated for an additional 60 seconds prior to the addition of arachidonic acid or ADP. Aliquots (50 μl) were removed at 30 and 60 seconds after the addition of arachidonic acid for determination of iTXB2. Platelet aggregation was monitored in a Model 300 Chronolog aggregometer using the method of Born.

thromboxane synthetase [2] = assay: iTXB2 production by whole blood after intravenous dosing of rats; format: in vivo, Sprague-Dawley rats; details: 30 minutes prior to obtaining blood, female rats
Description: Varying doses of the test compound were administered intravenously to female Sprague-Dawley rats weighing between 250-300 g 30 minutes prior to obtaining blood. […] A dose of 10 mg/kg produced approximately a 50% inhibition of iTXB2 production.

washed platelets = assay: 14C-arachidonic acid metabolism by washed platelets (TLC); format: cell-based, human
Description: Washed platelets (400 μl) prepared as above were placed in a cuvette. Either vehicle (50 μl), isoquinoline test compound, or indomethacin was then added. After incubation for 55 seconds at 37° C., 50 μl of calcium chloride (5 mM) was added and, at 60 seconds, 50 μl of ^14 C-arachidonic acid (0.1 μCi, 0.4 mM) was added. Four minutes later, 80 μl of 10% formic acid was added to stop the reaction. The contents were then poured into 6.5 ml of ice-cold ethyl acetate and the cuvette was further rinsed twice with 1 ml of ethyl acetate. The samples were subsequently extracted as previously described. The dried extract was reconstituted in chloroform:methanol (2:1) and spotted onto TLC plates. PGE2 PGF2α, TXB2 (20 μg of each) were spotted as the reference. The plates were developed in a chloroform:methanol, acetic acid, water (90:8:1:0.8) solution. […] Each plate was visualized with iodine vapor, the Rf s noted and then 1 cm zones scraped and counted in a Beckman Liquid Scintillation spectrometer.

platelet rich plasma [3] = assay: arachidonic acid induced platelet aggregation in platelet rich plasma (Born aggregometry); format: cell-based, human
Description: as §1

microphages = assay: endogenous arachidonic acid metabolism by microphages; format: cell-based
Description: To establish if the test compound was a selective thromboxane synthetase inhibitor or a fatty acid cyclooxygenase inhibitor, the effects of the isoquinoline on endogenous arachidonic acid metabolism by microphages was assessed. […] The effect on i-6-keto-PGFα levels was variable. At a concentration of 500 μm it inhibited i-6-keto-PGFα formation and at 250 μm it increased its formation. At all other concentrations it had no affect.

thromboxane synthetase [4] = assay: iTXB2 produced during arachidonic acid induced platelet aggregation; format: cell-based, human; details: 1 mM
Description: as §1

| Structure (SMILES) | ADP induced platelet aggregation as compared to control (platelet rich plasma [1]; 1 mM) | inhibition at 1000 µM (platelet rich plasma [1]; Homo sapiens, Platelet, 1 min, 1000 μM, at 60 seconds, read-out: reduction of ADP aggregation) [%] | inhibition of iTXB2 production (thromboxane synthetase [2]; 10 mg/kg intravenously) [%] | iTXB2 production by whole blood (thromboxane synthetase [2]; varying doses intravenously) | percent of arachidonic acid converted to PGE2 (washed platelets; washed platelets) | percentage of arachidonic acid converted to TXB2 (washed platelets; washed platelets) | total amount of arachidonic acid metabolized via the cyclo-oxygenase pathway (washed platelets; washed platelets, versus vehicle controls) | rate of arachidonic acid induced platelet aggregation (platelet rich plasma [3]; 0.5 mM) | rate of arachidonic acid induced platelet aggregation (platelet rich plasma [3]; 1 mM) | basal synthesis of iTXB2 by microphages (microphages; 10 μM to 1000 μM) | i-6-keto-PGFα formation (microphages; 250 μm) | i-6-keto-PGFα formation (microphages; 500 μm) | i-6-keto-PGFα formation (microphages; all other concentrations) | iPGE levels (microphages; at most concentrations) | selectivity for thromboxane synthesis (microphages; conclusion from iTXB2, iPGE and i-6-keto-PGFα levels) | amounts of iTXB2 produced during arachidonic acid induced platelet aggregation (thromboxane synthetase [4]; 30 seconds) | amounts of iTXB2 produced during arachidonic acid induced platelet aggregation (thromboxane synthetase [4]; 60 seconds) | inhibition at 50 µM (washed platelets; Homo sapiens, Platelet, 4 min, read-out: reduction of metabolism of arachidonic acid compared to controls) [%] |
| --- | --- | --- | --- | --- | --- | --- | --- | --- | --- | --- | --- | --- | --- | --- | --- | --- | --- | --- |
| O=C(O)c1ccc(NCc2cncc3ccccc23)cc1 [isoquinoline, 4-[(4-isoquinolinylmethyl)amino]benzoic acid] | marked effect | 30 | ~50 | dose dependent reduction | did not affect | reduced | not different from the vehicle controls | significantly inhibited | significantly inhibited | significantly reduced | increased | inhibited | no affect | significantly increased | appears to selectively inhibit thromboxane synthesis | significantly reduced | significantly reduced | – |
| COc1ccc2c(c1)c(CC(=O)O)c(C)n2C(=O)c1ccc(Cl)cc1 [indomethacin, reference compound] | – | – | – | – | – | – | – | – | – | – | – | – | – | – | – | – | – | 78 |
